From patent US20210070748A1, “INHIBITORS OF BRUTONS TYROSINE KINASE” (Pharmacyclics LLC, priority 2015, published 2021)
Structures can show the parent of a compound that is named as a salt. Where two headings read alike, the source gives them in different places.

Columns and labels:
Assay type in all cases: biochemical
BTK-WT = molecular target: T1, BTK-WT (Homo sapiens, UniProt Q06187); test: Btk in vitro inhibitory activity (one of Method A TR-FRET, Method B electrophoretic mobility shift, Method C radiometric filter binding); settings: read-out: BTK-WT (IC50)
T1 construct: purified from insect cells as a full-length construct containing an N-terminal 6X-His tag; His6 (N); made in house; host or cells: insect cells (baculovirus Sf21 in Method B)
T1 sequence (Q06187 whole entry): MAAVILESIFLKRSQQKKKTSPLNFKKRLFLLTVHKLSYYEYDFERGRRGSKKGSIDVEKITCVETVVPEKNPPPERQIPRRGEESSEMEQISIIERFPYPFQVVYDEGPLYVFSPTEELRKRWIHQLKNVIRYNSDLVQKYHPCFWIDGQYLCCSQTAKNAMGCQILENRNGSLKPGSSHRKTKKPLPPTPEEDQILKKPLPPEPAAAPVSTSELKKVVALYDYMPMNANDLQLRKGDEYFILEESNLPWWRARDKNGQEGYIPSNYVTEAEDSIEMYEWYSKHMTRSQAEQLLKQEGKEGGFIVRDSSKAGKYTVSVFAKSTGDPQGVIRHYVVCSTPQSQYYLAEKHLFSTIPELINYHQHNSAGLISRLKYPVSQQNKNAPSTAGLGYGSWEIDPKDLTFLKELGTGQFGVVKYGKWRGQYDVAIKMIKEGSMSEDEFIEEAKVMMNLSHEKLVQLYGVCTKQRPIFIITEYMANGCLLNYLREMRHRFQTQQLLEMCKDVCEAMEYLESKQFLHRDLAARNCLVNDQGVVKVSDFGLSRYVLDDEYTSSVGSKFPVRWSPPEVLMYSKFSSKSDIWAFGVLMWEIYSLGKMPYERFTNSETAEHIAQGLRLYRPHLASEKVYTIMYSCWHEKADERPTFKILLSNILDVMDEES

JAK3 = molecular target: T2, JAK3 (Homo sapiens, UniProt P52333); test: Inhibition of a panel of kinases, in vitro HotSpot kinase assay: JAK3; settings: 1 μM ATP, read-out: JAK3 (IC50)
T2 sequence (P52333 1-1124): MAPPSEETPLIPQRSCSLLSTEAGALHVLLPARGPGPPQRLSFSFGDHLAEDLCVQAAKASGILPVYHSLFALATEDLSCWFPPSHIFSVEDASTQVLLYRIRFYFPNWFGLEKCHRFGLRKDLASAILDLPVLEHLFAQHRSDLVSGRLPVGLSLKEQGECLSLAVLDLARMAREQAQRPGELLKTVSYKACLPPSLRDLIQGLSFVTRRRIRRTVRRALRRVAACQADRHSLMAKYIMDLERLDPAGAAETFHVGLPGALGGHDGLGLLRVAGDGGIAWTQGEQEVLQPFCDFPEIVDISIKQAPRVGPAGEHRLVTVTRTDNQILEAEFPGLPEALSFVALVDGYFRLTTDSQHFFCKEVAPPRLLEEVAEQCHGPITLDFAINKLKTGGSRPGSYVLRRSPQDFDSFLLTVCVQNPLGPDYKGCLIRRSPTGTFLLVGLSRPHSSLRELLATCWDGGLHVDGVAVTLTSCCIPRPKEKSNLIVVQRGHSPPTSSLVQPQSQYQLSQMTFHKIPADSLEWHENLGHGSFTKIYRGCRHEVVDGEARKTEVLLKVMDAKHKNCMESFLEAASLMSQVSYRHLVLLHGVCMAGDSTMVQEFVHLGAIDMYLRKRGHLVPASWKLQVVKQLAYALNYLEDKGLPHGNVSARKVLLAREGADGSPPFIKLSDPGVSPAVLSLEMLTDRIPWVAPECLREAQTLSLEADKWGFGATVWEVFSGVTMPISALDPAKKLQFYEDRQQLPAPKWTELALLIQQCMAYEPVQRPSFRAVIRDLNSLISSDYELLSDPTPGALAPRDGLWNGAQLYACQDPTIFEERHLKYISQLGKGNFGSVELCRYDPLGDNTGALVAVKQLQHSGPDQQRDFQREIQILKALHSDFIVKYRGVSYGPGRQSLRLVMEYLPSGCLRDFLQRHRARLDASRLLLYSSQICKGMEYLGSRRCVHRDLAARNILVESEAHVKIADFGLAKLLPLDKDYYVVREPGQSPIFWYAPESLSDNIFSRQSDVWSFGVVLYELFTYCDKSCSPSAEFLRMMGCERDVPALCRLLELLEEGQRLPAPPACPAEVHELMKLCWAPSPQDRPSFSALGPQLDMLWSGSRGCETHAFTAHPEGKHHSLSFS

LCK = LCK (Homo sapiens, UniProt P06239); test: Inhibition of a panel of kinases, in vitro HotSpot kinase assay: LCK; settings: 1 μM ATP, read-out: LCK (IC50)
Sequence of LCK (P06239 whole entry): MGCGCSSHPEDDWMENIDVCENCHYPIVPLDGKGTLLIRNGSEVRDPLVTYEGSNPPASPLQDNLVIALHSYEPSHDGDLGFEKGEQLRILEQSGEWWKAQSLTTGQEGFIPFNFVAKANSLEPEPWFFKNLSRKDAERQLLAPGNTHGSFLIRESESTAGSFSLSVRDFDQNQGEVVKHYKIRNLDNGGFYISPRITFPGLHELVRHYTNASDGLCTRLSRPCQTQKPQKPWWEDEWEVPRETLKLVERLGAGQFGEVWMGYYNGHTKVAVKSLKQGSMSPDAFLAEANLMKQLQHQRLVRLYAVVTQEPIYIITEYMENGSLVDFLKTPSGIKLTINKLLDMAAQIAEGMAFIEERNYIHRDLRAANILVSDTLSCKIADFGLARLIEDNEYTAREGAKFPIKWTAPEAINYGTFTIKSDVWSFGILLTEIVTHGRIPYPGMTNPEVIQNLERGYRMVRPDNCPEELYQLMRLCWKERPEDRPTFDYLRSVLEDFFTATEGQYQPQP

IC50 (BTK-WT; Table 11, Formula B-I) | IC50 (JAK3; Table 11, Formula B-I) | IC50 (LCK; Table 11, Formula B-I) | IC50 (BTK-WT; Table 12, Formula C-I) | IC50 (JAK3; Table 12, Formula C-I) | IC50 (LCK; Table 12, Formula C-I) | SMILES
≤ 100 nM | 1000 to 10000 nM | < 100 nM |  |  |  | CN1CCN(C(=O)c2ccc(Nc3nc(N[C@H]4CC[C@@H](NC(=O)N(C)C)CC4)cnc3C(N)=O)cc2)CC1 [Example B-16, 5-((1s,4s)-4-(3,3-dimethyl-ureido)cyclohexyl-amino)-3-(4-(4-methylpiperazine-1-carbonyl)phenylamino) pyrazine-2-carboxamide]
 |  |  | ≤ 100 nM | < 100 nM | < 100 nM | Cc1cc(Nc2nc(N[C@@H]3CCCNC3)cnc2C(N)=O)sn1 [Example C-1, 3-[(3-methyl-1,2-thiazol-5-yl)amino]-5-{[(3R)-piperidin-3-yl]amino}pyrazine-2-carboxamide]
 |  |  | ≤ 100 nM | 100 to 1000 nM | 100 to 1000 nM | Cc1cc(Nc2nc(N[C@H]3CCCN(C(=O)N(C)C)C3)cnc2C(N)=O)sn1 [Example C-2, 5-{[(3S)-1-(dimethylcarbamoyl)piperidin-3-yl]amino}-3-[(3-methyl-1,2-thiazol-5-yl)amino]pyrazine-2-carboxamide]
 |  |  | ≤ 100 nM | > 10000 nM | > 10000 nM | Cc1cc(Nc2nc(N[C@@H]3CCCN(C(=O)c4ccccc4)C3)cnc2C(N)=O)sn1 [Example C-3, 5-{[(3R)-1-benzoylpiperidin-3-yl]amino}-3-[(3-methyl-1,2-thiazol-5-yl)amino]pyrazine-2-carboxamide]
 |  |  | ≤ 100 nM | > 10000 nM | > 10000 nM | Cc1cc(Nc2nc(N[C@H]3CCCN(C(=O)c4ccc(N(C)C)cc4)C3)cnc2C(N)=O)sn1 [Example C-4, 5-{[(3S)-1-[4-(dimethylamino)benzoyl]piperidin-3-yl]amino}-3-[(3-methyl-1,2-thiazol-5-yl)amino]pyrazine-2-carboxamide]
 |  |  | 100 to 1000 nM | 100 to 1000 nM | 1000 to 10000 nM | Cc1cc(Nc2nc(N[C@@H]3CCCN(C(=O)N(C)C)C3)cnc2C(N)=O)sn1 [Example C-5, 5-([(3R)-1-(dimethylcarbamoyl)piperidin-3-yl]amino)-3-[(3-methyl-1,2-thiazol-5-yl)amino]pyrazine-2-carboxamide hydrochloride]
 |  |  | 1000 to 10000 nM | > 10000 nM | > 10000 nM | Cc1cc(Nc2nc(N[C@H]3CCCN(C(=O)c4ccccc4)C3)cnc2C(N)=O)sn1 [Example C-6, 5-{[(3S)-1-benzoylpiperidin-3-yl]amino}-3-[(3-methyl-1,2-thiazol-5-yl)amino]pyrazine-2-carboxamide]
 |  |  | > 10000 nM | > 10000 nM | > 10000 nM | Cc1cc(Nc2nc(N[C@@H]3CCCN(C(=O)c4ccc(N(C)C)cc4)C3)cnc2C(N)=O)sn1 [Example C-7, 5-{[(3R)-1-[4-(dimethylamino)benzoyl]piperidin-3-yl]amino}-3-[(3-methyl-1,2-thiazol-5-yl)amino]pyrazine-2-carboxamide hydrochloride]
 |  |  | 100 to 1000 nM | 1000 to 10000 nM | 1000 to 10000 nM | Cc1cc(Nc2nc(N(C)[C@H]3CCCN(C(=O)N(C)C)C3)cnc2C(N)=O)sn1 [Example C-8, 5-([(3S)-1-(dimethylcarbamoyl)piperidin-3-yl](methyl)amino)-3-[(3-methyl-1,2-thiazol-5-yl)amino]pyrazine-2-carboxamide]
 |  |  | ≤ 100 nM | 100 to 1000 nM | 100 to 1000 nM | Cc1cc(Nc2nc(N[C@H]3CCN(C(=O)N(C)C)C3)cnc2C(N)=O)sn1 [Example C-10, 5-{[(3S)-1-(dimethylcarbamoyl)pyrrolidin-3-yl]amino}-3-[(3-methyl-1,2-thiazol-5-yl)amino]pyrazine-2-carboxamide]
 |  |  | ≤ 100 nM | 1000 to 10000 nM | 1000 to 10000 nM | Cc1cc(Nc2nc(N[C@@H]3CCN(C(=O)c4ccccc4)C3)cnc2C(N)=O)sn1 [Example C-11, 5-{[(3R)-1-benzoylpyrrolidin-3-yl]amino}-3-[(3-methyl-1,2-thiazol-5-yl)amino]pyrazine-2-carboxamide hydrochloride]
 |  |  | 100 to 1000 nM | 100 to 1000 nM | 100 to 1000 nM | Cc1cc(Nc2nc(N[C@@H]3CCN(C(=O)N(C)C)C3)cnc2C(N)=O)sn1 [Example C-12, 5-([(3R)-1-(dimethylcarbamoyl)pyrrolidin-3-yl]amino)-3-[(3-methyl-1,2-thiazol-5-yl)amino]pyrazine-2-carboxamide]
 |  |  | ≤ 100 nM | 1000 to 10000 nM | 1000 to 10000 nM | Cc1cc(Nc2nc(N[C@@H]3CCN(C(=O)c4ccc(N(C)C)cc4)C3)cnc2C(N)=O)sn1 [Example C-13, 5-([(3R)-1-[4-(dimethylamino)benzoyl]pyrrolidin-3-yl]amino)-3-[(3-methyl-1,2-thiazol-5-yl)amino]pyrazine-2-carboxamide]
 |  |  | 100 to 1000 nM | 1000 to 10000 nM | 1000 to 10000 nM | Cc1cc(Nc2nc(N(C)CC3CCN(C(=O)N(C)C)CC3)cnc2C(N)=O)sn1 [Example C-14, 5-({[1-(dimethylcarbamoyl)piperidin-4-yl]methyl}(methyl)amino)-3-[(3-methyl-1,2-thiazol-5-yl)amino]pyrazine-2-carboxamide]
 |  |  | 100 to 1000 nM | 1000 to 10000 nM | 1000 to 10000 nM | Cc1cc(Nc2nc(N(C)CC3CCN(C(=O)c4ccccc4)CC3)cnc2C(N)=O)sn1 [Example C-15, 5-{[(1-benzoylpiperidin-4-yl)methyl](methyl)amino}-3-[(3-methyl-1,2-thiazol-5-yl)amino]pyrazine-2-carboxamide]
 |  |  | 100 to 1000 nM | 1000 to 10000 nM | 1000 to 10000 nM | Cc1cc(Nc2nc(N(C)CC3CCN(C(=O)c4ccc(N(C)C)cc4)CC3)cnc2C(N)=O)sn1 [Example C-16, 5-[({1-[4-(dimethylamino)benzoyl]piperidin-4-yl}methyl)(methyl)amino]-3-[(3-methyl-1,2-thiazol-5-yl)amino]pyrazine-2-carboxamide]
 |  |  | ≤ 100 nM | < 100 nM | > 10000 nM | C=CC(=O)N1CC[C@H](Nc2nnc(C(N)=O)c(Nc3cccc(C(=O)Nc4ccc(C(C)C)c(C)c4)c3)n2)C1 [Example C-29, (S)-3-(1-acryloylpyrrolidin-3-ylamino)-5-(3-(4-isopropyl-3-methylphenyl-carbamoyl)phenyl-amino)-1,2,4-triazine-6-carboxamide]
 |  |  | ≤ 100 nM | 100 to 1000 nM | > 10000 nM | C=CC(=O)N1CC[C@@H](Nc2nnc(C(N)=O)c(Nc3cccc(C(=O)Nc4ccc(C(C)C)c(C)c4)c3)n2)C1 [Example C-30, (R)-3-(1-acryloylpyrrolidin-3-ylamino)-5-(3-(4-isopropyl-3-methylphenyl-carbamoyl)phenyl-amino)-1,2,4-triazine-6-carboxamide]
 |  |  | ≤ 100 nM | < 100 nM | 100 to 1000 nM | C=CC(=O)N1CC[C@H](Nc2nnc(C(N)=O)c(Nc3ccc(C(C)C)cc3)n2)C1 [Example C-31, (S)-3-(1-acryloylpyrrolidin-3-ylamino)-5-(4-isopropylphenylamino)-1,2,4-triazine-6-carboxamide]
 |  |  | ≤ 100 nM | < 100 nM | 100 to 1000 nM | C=CC(=O)N1CC[C@@H](Nc2nnc(C(N)=O)c(Nc3ccc(C(C)C)cc3)n2)C1 [Example C-32, (R)-3-(1-acryloylpyrrolidin-3-ylamino)-5-(4-isopropylphenylamino)-1,2,4-triazine-6-carboxamide]
